# In PubChem BioAssay (NCI):
#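 Interpolation was linear, between the two tested concentrations surrounding the appropriate level; five concentrations were tested over 48 hours in 96-well plates. GI50 marks 50% less growth. The concentration for full growth arrest is given as TGI.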
# Key:
# Experiment in all cases: inhibition of tumour cell growth, NCI panel, 48 h
# ACHN renal = system: ACHN renal
# 786-0 renal = system: 786-0 renal
# RPMI-8226 leukemia = system: RPMI-8226 leukemia
# OVCAR-8 ovarian = system: OVCAR-8 ovarian
# OVCAR-3 ovarian = system: OVCAR-3 ovarian
# CCRF-CEM leukemia = system: CCRF-CEM leukemia
# SN12C renal = system: SN12C renal
# HL-60(TB) leukemia = system: HL-60(TB) leukemia
# IGROV1 ovarian = system: IGROV1 ovarian
# UACC-62 melanoma = system: UACC-62 melanoma
SMILES,GI50 (ACHN renal) [µM],TGI (ACHN renal) [µM],GI50 (786-0 renal) [µM],TGI (786-0 renal) [µM],GI50 (RPMI-8226 leukemia) [µM],TGI (RPMI-8226 leukemia) [µM],GI50 (OVCAR-8 ovarian) [µM],TGI (OVCAR-8 ovarian) [µM],GI50 (OVCAR-3 ovarian) [µM],TGI (OVCAR-3 ovarian) [µM],GI50 (CCRF-CEM leukemia) [µM],TGI (CCRF-CEM leukemia) [µM],GI50 (SN12C renal) [µM],TGI (SN12C renal) [µM],GI50 (HL-60(TB) leukemia) [µM],TGI (HL-60(TB) leukemia) [µM],GI50 (IGROV1 ovarian) [µM],TGI (IGROV1 ovarian) [µM],GI50 (UACC-62 melanoma) [µM],TGI (UACC-62 melanoma) [µM]
Fc1cccc(COc2ccc(Nc3ncnc4cc(-c5ccc[nH]5)sc34)cc2Cl)c1,2.68,> 16.8,1.22,5.32,0.133,> 15.9,3.38,> 25,0.151,2.99,0.44,> 25,1.42,> 25,0.354,3.22,0.406,11.7,5.77,> 22.8
COc1cccc(C2c3cc4c(cc3OC(O)(CO)C2C(=O)O)OCO4)c1 (stereo not given) (tested in a mixture with another compound),,> 100,,> 100,,> 100,,> 100,,> 100,,> 100,,> 100,,75.4,,> 100,,> 100
CC1S(=O)(=O)OCCOS1(=O)=O,,> 100,,> 100,,> 100,,> 100,,> 100,,> 100,,> 100,,87.1,,> 100,,> 83.5
N[C@H](C(=O)O)[C@H](Cl)CC(=O)O,,> 100,,> 100,,,,> 100,,> 100,,> 100,,> 100,,> 100,,> 100,,> 100
COc1ccc(-c2cn(-c3ccccc3)c(-c3ccccc3)n2)cc1OC,9.55,21.4,3.56,13.5,1.31,3.59,3.01,10.8,2.2,5.07,2.16,5.98,5.2,17.8,2.34,6.7,2.72,9.3,10.4,22.6
O=C(CN1CCN(c2ccccc2)CC1)N1CCc2c([nH]c3ccccc23)C1c1cccnc1 (stereo not given),,> 100,,50.8,,> 100,,> 100,,> 100,,> 100,,> 100,,> 100,,> 100,,> 100
CCOC(=O)NN1C(=O)C(=P(c2ccccc2)(c2ccccc2)c2ccccc2)C(C(=O)OCC)=C1C,,> 100,,> 100,,> 100,,> 100,,> 100,,> 100,,> 100,,> 100,,> 100,,> 100
C=C(C)C(=O)O[C@H]1[C@H]2[C@H](OC(=O)[C@H]2C)[C@H](O)[C@@H](C)[C@@H]2C=CC(=O)[C@]21C,,12.7,,5.21,,9.73,,4.07,,18.4,,7.53,,4.96,,2.86,,7,,3.84
O=C(O)c1cc(=O)c2[nH]c3ccccc3c2s1,,> 100,,> 100,,> 100,,> 100,,> 100,,> 100,,> 100,,> 100,,> 100,,> 100
CCCCCCCCCCCCCCCCCCCCCC(=O)Nc1ccn(C2OC(CO)C(O)C2O)c(=O)n1 (stereo not given),,> 82.6,,> 100,,> 100,,> 100,,> 100,,> 40.7,,> 100,,> 100,,> 100,,> 100
O=C(CCl)N1c2ccccc2Sc2c1ccc1ccccc21,1.83,3.69,1.82,3.27,3.08,13.1,2.13,5.48,1.86,3.26,0.696,36.6,1.79,3.27,3.06,8.98,,,2.07,4.9
CC(C)NC(=O)OCCS(=O)c1c(Cl)c(Cl)nn1C (stereo not given),,> 100,,72.6,,> 100,,,,> 100,,> 100,,> 100,,> 100,,> 100,,67.7
COc1cc(Nc2nc(N[C@H]3CCCC[C@@H]3N)nc3cc[nH]c(=O)c23)cc(OC)c1,1.38,19.9,3.31,18.8,2.18,12.1,3.17,19.6,8.71,21.8,1.39,11.8,2.43,16.9,0.47,3.8,,,0.844,19.1
CC1=C(O)C(=O)C2C(=O)C1C(C)C2c1ccc(Cl)cc1 (stereo not given),,> 100,,> 100,,> 100,,> 100,,> 100,,> 100,,,,> 100,,> 100,,> 100
NNC(=O)CCC(=O)NC1C2CC3CC(C2)CC1C3 (stereo not given),,> 100,,> 100,,> 100,,> 100,,,,> 100,,> 100,,> 100,,> 100,,> 100
CSc1nc2c(nc(N)n2C2OCC(O)C(O)C2O)c(=O)n1C (stereo not given),,> 100,,> 100,,,,> 100,,> 100,,> 100,,> 100,,> 100,,> 100,,> 100
CC(=O)Nc1ccc2c(c1)oc(=O)c1cc(NC(C)=O)ccc12,> 100,> 100,> 100,> 100,52.8,> 100,> 100,> 100,> 100,> 100,,,29.6,> 100,41.3,> 100,83.4,> 100,63.4,> 100
c1cnc2[nH]cc(-c3csc(-c4cn(CCCCN5CCOCC5)c5ccccc45)n3)c2c1,,,1.85,3.33,1.83,4.29,,,1.64,3.17,1.98,4.03,2.98,10.8,1.96,3.92,1.43,4.25,1.79,3.8
